Literature values as cited in publication PMC4860896 (Theranostics, 2016).

OCC1[C@H]2CC/C=C/CC[C@@H]12 (stereo partly drawn) [compound 4, (1R,8S,E)-bicyclo[6.1.0]non-4-en-9-ylmethanol]
rate constant of reaction of sTCO with diphenyl-s-tetrazine derivatives (at 25 °C in water, prior study): up to 2.86 x 10^5 M^-1s^-1
rate constant of tetrazine ligation, fastest measured (room temperature conjugations in water, listed as sTCO): ≤ 3.3e+06 M⁻¹ s⁻¹
